Read-outs that look alike come from different tables or passages of the source. Square brackets hold non-standard residues; d marks the D form. Peptide text beside a SMILES is read from it. * marks the point of attachment. Acetyl(9-fluorenyl) = O=C(CC1c2ccccc2-c2ccccc21)*; Anthracene1carbonyl = O=C(c1cccc2cc3ccccc3cc12)*; 2Nal = N[C@@H](Cc1ccc2ccccc2c1)C(=O)O; Gly(cPent) = N[C@H](C(=O)O)C1CCCC1; X1 = O=C(Cn1c2ccccc2c2ccccc21)*; Aad = N[C@@H](CCCC(=O)O)C(=O)O; Cba = N[C@@H](CC1CCC1)C(=O)O; Aib = CC(C)(N)C(=O)O; Dha = C=C(N)C(=O)O
Experiments:
[1] = biological target: T1, MBP-16E6 (Human papillomavirus 16, UniProt P03126, C104S/C118S/C147S/C87S); conditions: for mono-crosslink yield at 1 h: 1 μM MBP-16E6, 4 μM Dha peptide; for mono-crosslink in 2 h: 2 h at 37° C., 10 eq. to protein 16E6; for crosslinking to MBP-16E6: LC-MS
[2] = biological target: T1, MBP-16E6; test: biochemical
[3] = biological target: T1, MBP-16E6; conditions: for improvement of binding relative to peptide 18: apparent Ki
[4] = biological target: SARS-CoV-2 3C-Like Protease; conditions: role: inhibitor; comparison drug; cited from earlier work
[5] = biological target: MBP-16E6 L57A (Human papillomavirus 16, UniProt P03126, C104S/C118S/C147S/C87S/L57A); conditions: 10 μM reactide 18
[6] = biological target: MBP-16E6 C58S (Human papillomavirus 16, UniProt P03126, C104S/C118S/C147S/C58S/C87S); conditions: 12 h, PBS, 37° C.
[7] = biological target: T1, MBP-16E6; conditions: 1 μM MBP-16E6, Dha peptide mixture 12 μM, 2 h, 37° C.
[8] = biological target: T1, MBP-16E6
[9] = biological target: bovine serum albumin (BSA) (Bos taurus, UniProt P02769); test: Crosslinking in a protein mixture, BSA; format: binding; conditions: 10 μM peptide, 37° C., 12 h
[10] = biological target: Sumo-MDM2 (Homo sapiens, UniProt Q00987); test: Crosslinking in a protein mixture, Sumo-MDM2; format: binding; conditions: 10 μM peptide, 37° C., 12 h
[11] = biological target: 16E6/E6AP (Human papillomavirus 16, UniProt P03126, C104S/C118S/C147S/C87S); conditions: 1 μM MBP-16E6
[12] = biological target: T2, THRA (Homo sapiens, UniProt P10827); format: binding
T2 sequence (P10827 148-410 limits assumed): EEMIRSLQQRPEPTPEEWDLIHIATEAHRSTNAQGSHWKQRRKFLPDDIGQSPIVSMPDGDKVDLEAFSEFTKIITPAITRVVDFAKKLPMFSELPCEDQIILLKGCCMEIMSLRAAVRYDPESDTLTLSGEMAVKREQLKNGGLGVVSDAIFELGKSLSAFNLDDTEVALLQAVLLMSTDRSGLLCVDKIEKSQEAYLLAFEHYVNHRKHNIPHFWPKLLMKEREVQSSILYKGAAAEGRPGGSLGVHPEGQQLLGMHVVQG

bovine serum albumin (BSA), sequence (P02769 25-607): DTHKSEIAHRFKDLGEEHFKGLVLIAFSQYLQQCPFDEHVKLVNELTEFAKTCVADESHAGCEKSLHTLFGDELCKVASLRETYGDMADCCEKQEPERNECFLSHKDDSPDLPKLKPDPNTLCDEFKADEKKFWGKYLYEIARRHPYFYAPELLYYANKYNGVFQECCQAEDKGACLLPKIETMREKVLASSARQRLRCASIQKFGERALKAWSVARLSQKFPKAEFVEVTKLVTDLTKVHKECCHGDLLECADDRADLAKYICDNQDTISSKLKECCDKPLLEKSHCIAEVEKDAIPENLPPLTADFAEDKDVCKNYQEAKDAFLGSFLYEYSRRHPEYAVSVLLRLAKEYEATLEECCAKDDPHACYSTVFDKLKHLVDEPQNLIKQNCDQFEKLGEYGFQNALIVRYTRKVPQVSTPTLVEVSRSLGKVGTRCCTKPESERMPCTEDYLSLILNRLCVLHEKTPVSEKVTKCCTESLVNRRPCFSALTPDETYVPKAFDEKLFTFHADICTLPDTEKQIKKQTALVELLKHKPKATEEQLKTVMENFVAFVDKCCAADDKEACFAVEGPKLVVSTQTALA
Sumo-MDM2, sequence (Q00987 25-109): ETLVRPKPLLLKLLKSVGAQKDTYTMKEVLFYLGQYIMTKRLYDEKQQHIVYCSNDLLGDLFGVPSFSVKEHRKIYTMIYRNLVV

## C=C(NC(=O)[C@H](CC(C)C)NC(=O)[C@H](CC1CCC1)NC(=O)[C@H](CCC(=O)O)NC(=O)C(C)(C)NC(=O)[C@H](CC(C)C)NC(=O)[C@@H](NC(=O)[C@H](Cc1ccc2ccccc2c1)NC(=O)[C@H](CCCC(=O)O)NC(=O)[C@H](C)NC(=O)[C@H](CO)NC(=O)[C@H](CCC(N)=O)NC(=O)[C@@H]1CCCN1C(=O)[C@@H](NC(=O)Cn1c2ccccc2c2ccccc21)[C@@H](C)CC)C1CCCC1)C(N)=O [18-Car-IPQSA-truncEER] (X1-IPQSA[Aad][2Nal][Gly(cPent)]L[Aib]E[Cba]L[Dha]-NH2)
[1]
  mono-crosslink yield at 1 h: 76%
  mono-crosslink in 2 h: quantitatively mono-crosslink
[2]
  Ki: 0.044 ± 0.011 µM

## C=C(NC(=O)[C@H](C)NC(=O)[C@H](C)NC(=O)[C@H](CCC(=O)O)NC(=O)C(C)(C)NC(=O)[C@H](C)NC(=O)[C@@H](NC(=O)[C@H](Cc1ccc2ccccc2c1)NC(=O)[C@@H](N)CCCC(=O)O)C1CCCC1)C(=O)N[C@@H](CCC(=O)O)C(=O)N[C@@H](CCC(=O)O)C(=O)N[C@@H](CCCNC(=N)N)C(N)=O [Peptide 18-3L3A] (H-[Aad][2Nal][Gly(cPent)]A[Aib]EAA[Dha]EER-NH2)
[3]; BLI
  binding to MBP-16E6: no observable binding
[1]
  crosslinking to MBP-16E6: no observable crosslinking

## C=C(NC(=O)[C@H](CC(C)C)NC(=O)[C@H](CC1CCC1)NC(=O)[C@H](CCC(=O)O)NC(=O)C(C)(C)NC(=O)[C@H](CC(C)C)NC(=O)[C@@H](NC(=O)[C@H](Cc1ccc2ccccc2c1)NC(=O)[C@H](CCCC(=O)O)NC(=O)[C@H](C)NC(=O)[C@H](CO)NC(=O)[C@H](CCC(N)=O)NC(=O)[C@@H]1CCCN1C(=O)[C@@H](NC(=O)Cn1c2ccccc2c2ccccc21)[C@@H](C)CC)C1CCCC1)C(=O)N[C@@H](CCC(=O)O)C(=O)N[C@@H](CCC(=O)O)C(=O)N[C@@H](CCCNC(=N)N)C(N)=O [Peptide 18-Car-IPQSA] (X1-IPQSA[Aad][2Nal][Gly(cPent)]L[Aib]E[Cba]L[Dha]EER-NH2)
[3]
  improvement of binding relative to peptide 18: 7 fold
[1]
  mono-crosslink yield at 1 h: 85%
  mono-crosslink in 2 h: quantitatively mono-crosslink
[2]
  Ki: 0.025 ± 0.0055 µM

## C=C(NC(=O)[C@H](CC(C)C)NC(=O)[C@H](CC1CCC1)NC(=O)[C@H](CCC(=O)O)NC(=O)C(C)(C)NC(=O)[C@H](CC(C)C)NC(=O)[C@@H](NC(=O)[C@H](Cc1ccc2ccccc2c1)NC(=O)[C@H](CCCC(=O)O)NC(=O)Cn1c2ccccc2c2ccccc21)C1CCCC1)C(=O)N[C@@H](CCC(=O)O)C(=O)N[C@@H](CCC(=O)O)C(=O)N[C@@H](CCCNC(=N)N)C(N)=O [Peptide 18-Car] (X1-[Aad][2Nal][Gly(cPent)]L[Aib]E[Cba]L[Dha]EER-NH2)
[3]
  improvement of binding relative to peptide 18: 3 fold
[1]
  mono-crosslink in 2 h: quantitatively mono-crosslink
[2]
  Ki: 0.096 ± 0.033 µM

## C=C(NC(=O)[C@H](CC(C)C)NC(=O)[C@H](CC1CCC1)NC(=O)[C@H](CCC(=O)O)NC(=O)C(C)(C)NC(=O)[C@H](CC(C)C)NC(=O)[C@@H](NC(=O)[C@H](CCCCNC(=O)Cn1c2ccccc2c2ccccc21)NC(=O)[C@H](CCCC(=O)O)NC(C)=O)C1CCCC1)C(=O)N[C@@H](CCC(=O)O)C(=O)N[C@@H](CCC(=O)O)C(=O)N[C@@H](CCCNC(=N)N)C(N)=O [Peptide 18-Naf2Cab] (Ac-[Aad]K(X1)[Gly(cPent)]L[Aib]E[Cba]L[Dha]EER-NH2)
[1]
  mono-crosslink yield at 1 h: 83%
  mono-crosslink in 2 h: quantitatively mono-crosslink
[2]
  Ki: 0.051 ± 0.011 µM

## CC(C)(C)[C@H](NC(=O)C(F)(F)F)C(=O)N1C[C@H]2[C@@H]([C@H]1C(=O)N[C@H](C#N)C[C@@H]1CCNC1=O)C2(C)C [nirmatrelvir]
[4]
  kinact/Ki: 55000 M⁻¹ s⁻¹

## C=C(NC(=O)[C@H](CC(C)C)NC(=O)[C@H](CC1CCC1)NC(=O)[C@H](CCC(=O)O)NC(=O)C(C)(C)NC(=O)[C@H](CC(C)C)NC(=O)[C@@H](NC(=O)[C@H](Cc1ccc2ccccc2c1)NC(=O)[C@@H](N)CCCC(=O)O)C1CCCC1)C(=O)N[C@@H](CCC(=O)O)C(=O)N[C@@H](CCC(=O)O)C(=O)N[C@@H](CCCNC(=N)N)C(N)=O [peptide 18] (H-[Aad][2Nal][Gly(cPent)]L[Aib]E[Cba]L[Dha]EER-NH2)
[5]
  crosslinking to L57A: no crosslinking
[6]; 10 μM reactide 18
  crosslinking to C58S: No crosslinking
[3]
  improved affinity compared to parent reactide ELT-DHA9G: 50 fold
[1]; 10 μM reactide, 1 μM MBP-16E6, PBS, 37° C., 2 h
  mono-crosslinking: > 95%
[1]
  crosslinking to MBP-16E6: Quantitative mono-crosslinked
[7]
  mono-crosslink yield in competitive mixture: 83%
[8]; kinetic study, kinact/Ki
  improvement over E3 (ELT-DHA9G): 50 fold
[8]; role: inhibitor
  kinact/Ki: 22700 M⁻¹ s⁻¹
[8]; role: inhibitor, first-order rate constant, steady-state approximation
  kinact: 0.018 s⁻¹

## C=C(NC(=O)[C@H](CC(C)C)NC(=O)[C@H](CC(C)C)NC(=O)[C@H](CCC(=O)O)NC(=O)[C@H](CCC(N)=O)NC(=O)[C@H](CC(C)C)NC(=O)[C@@H](NC(=O)[C@H](CC(C)C)NC(=O)[C@H](CCC(=O)O)NC(=O)[C@H](C)NC(=O)[C@H](CO)NC(=O)[C@H](CCC(N)=O)NC(=O)[C@@H]1CCCN1C(=O)[C@@H](NC(=O)CC1c2ccccc2-c2ccccc21)[C@@H](C)CC)[C@@H](C)O)C(=O)N[C@@H](CCCNC(=N)N)C(=O)N[C@@H](CCCNC(=N)N)C(=O)N[C@@H](CCCCN)C(=O)N[C@@H](CCCCN)C(=O)N[C@@H](CCCCNC(=O)c1cccc2cc3ccccc3cc12)C(N)=O [reactide 13] ({Acetyl(9-fluorenyl)}-IPQSAELTLQELL[Dha]RRKKK(Anthracene1carbonyl)-NH2)
[6]; 3 μM peptide
  crosslinking to C58S: No crosslinking
[6]; 3 μM peptide, listed as peptide 13
  crosslinking to C58S: no appreciable amount of reaction product
[1]
  crosslinking to MBP-16E6: Quantitative mono-crosslinked
[1]; protein mixture with BSA and Sumo-MDM2 (1 μM each), 10 μM peptide, 37° C., 12 h
  mono-crosslinked conversion of 16E6 in protein mixture: > 95%
[9]
  modification of BSA: no observable modifications
[10]
  modification of MDM2: no observable modifications
[11]
  BLI response signal to immobilized E6AP protein: significantly decreased BLI response signal
[12]
  crosslink to THRA: no crosslink
